Results published in publication PMC4286326 (Journal of the American Chemical Society, 2014).
Several values for one entry are separate records, joined by “and”; a condition that tells them apart may be missing. Equal entries are not always repeated.

Assays:
[1] = tested on: M2-S31N-expressing A/WSN/33; assay type: cell-based, influenza A virus; details: read-out: A/WSN/33 (S31N) EC50
S31N mutant of M2 (A/M2) = S31N mutant of M2 (A/M2) (Influenza A virus, UniProt P0DOF5, S31N); assay type: biochemical; details: 100 µM

SMILES | EC50 [1] | % S31N inhibition (S31N mutant of M2 (A/M2))
Brc1ccc(CNC23CC4CC(CC(C4)C2)C3)s1 [Compound 11, N-[(5-bromothiophen-2-yl)methyl]adamantan-1-amine] | 1.8 µM | 76% and 76/N.T. %
NC12CC3CC(CC(C3)C1)C2 [Compound 1, amantadine, reference compound] | 22.5 µM | 36%
